From paper PMC11314410, “Synthesis and Anti-Trypanosoma cruzi Activity of New Pyrazole-Thiadiazole Scaffolds” (Molecules, 2024)
Where “and” joins values, the source holds several entries; their conditions need not be identical. Equal values may be shown once. Read-outs that look alike come from different tables or passages of the source.

Tests used:
[1] = tested on: Trypomastigotes of T. cruzi (Dm28c-Luc); test: microbe, parasite or virus in culture; type: cell-based, Trypanosoma cruzi; details: for IC50 / IC90: 24 h treatment; for IC50: mean ± SD, read-out: Anti-T. cruzi Activity Trypomastigotes IC50; for IC90: read-out: Anti-T. cruzi Activity Trypomastigotes IC90
Procedure: (§1) Genetically modified T. cruzi parasites, of clone Dm28c (TcI) expressing the firefly luciferase enzyme gene (Dm28c-Luc), were kindly provided by Dr. Cristina Henriques. T. cruzi Dm28c-Luc was maintained in a Vero cell cultivated in RPMI 1640 medium supplemented with 10% FBS. At 4-day post-infection (dpi), trypomastigotes, released in the cell culture supernatant, were harvested, followed by sedimentation (4000 rpm/20 min/4 °C) and quantification in a Neubauer chamber. Isolated trypomastigotes were used in the phenotypic screening assays as well as the antiparasitic activity in 3D cardiac microtissues, recovery (washout), and drug combination assays.
Drug screening was performed against clinically relevant forms of T. cruzi (amastigotes and trypomastigotes). Trypomastigotes, Dm28c-Luc (1 × 10^6 parasites/well), were added to 96-well plates and incubated with pyrazole-thiadiazole derivatives or Bz (100–0.41 µM). After 24 h of treatment (37 °C), the viability of the parasites was analyzed by adding a D-Luciferin solution (300 µg/mL) and luminescence was measured in the Glomax microplate reader.

[2] = tested on: Intracellular amastigotes of T. cruzi (Dm28c-Luc); test: microbe, parasite or virus in culture; type: cell-based, Trypanosoma cruzi; details: for IC50 / IC90: Trypanosoma cruzi; for IC90: read-out: Anti-T. cruzi Activity Intracellular Amastigotes IC90
Procedure: as §1
The activity of pyrazole-thiadiazole derivatives against intracellular amastigotes was evaluated in 24 h-T. cruzi infected Vero cell cultures (1.5 × 10^4 cells/well) at a 10:1 ratio. The cultures were washed and incubated with serial dilutions of the derivatives or Bz (100–0.41 µM). Drug treatment was carried out for 72 h at 37 °C and the parasite viability was determined by luminescence readout after D-Luciferin substrate addition (300 µg/mL). The reading was performed in the Glomax reader. The cell cultures incubated with the culture medium containing dimethylsulphoxide (DMSO; concentration ≤ 1%) were used as the […]. The concentrations required to inhibit parasite viability by 50% (IC50) and 90% (IC90) were calculated using Prism GraphPad software (version 8.2.1). The selectivity index (SI), which measures the window between cytotoxicity (CC50) and anti-T. cruzi activity (IC50), was calculated as CC50/IC50. A minimum of 3 independent assays in duplicate were performed.

[3] = Toxicity in mammalian cells (CellTiter Glo, 72 h); type: cell-based; details: African green monkey, Vero cells; 72 h, ATP levels; read-out: Cytotoxicity Vero Cells CC50
Procedure: (§2) Vero cell cultures grown in RPMI 1640 medium containing 10% fetal bovine serum (FBS) were cultured at 37 °C in a humidified atmosphere of 5% CO2 [82]. The cultures were used for drug screening assays and to obtain culture-derived trypomastigotes of T. cruzi.
(§3) Vero cells (1.5 ×10^4 cells/well), cultivated for 24 h at 37 °C in white 96-well plates with clear bottoms, were used to assess the toxicity of the pyrazole-thiadiazole derivatives (series 1 and 2). After washing, the cells were incubated for 72 h at 37 °C with different drug concentrations (500–1.95 μM). Cell viability was measured by adding 20 μL/well of CellTiter Glo reagent (Promega Corporation, Madison, WI, USA). This cell viability kit generates a luminescent signal proportional to the amount of ATP. The luminescence readout was performed using the Glomax Microplate Reader (Promega Corporation, Madison, WI, USA). Thus, the 50% cytotoxicity concentration (CC50), which reduces the cell viability by 50% (CC50), was calculated with Prism GraphPad software (version 8.2.1).

[4] = Cardiac toxicity in 2D cardiac monolayers (CellTiter-Glo, 72 h); type: cell-based, Swiss webster mice; details: Swiss webster, mouse, primary cardiac muscle cell monolayers (2D culture), ATP levels
Procedure: The primary culture of heart muscle cells was obtained from fetuses of Swiss webster mice. The heart was removed and the ventricles were fragmented and subjected to dissociation with trypsin and collagenase type II (Worthington Biochemical Corporation, Lakewood, USA) dissociation solution. Cell monolayers were employed to evaluate drug-induced cardiotoxicity.
(§4) The 2D cardiac cultures (5 × 10^4 cells/well) and 3D cardiac microtissues (2.5 × 10^4 cells/well) were incubated for 72 h at 37 °C with pyrazole-thiadiazole candidates followed by ATP detection by CellTiter-Glo [86]. A minimum of 3 independent assays were performed in duplicate.

[5] = Cardiac toxicity in 3D cardiac spheroids (CellTiter-Glo, 72 h); type: cell-based, Swiss webster mice; details: Swiss webster, mouse, 3D cardiac microtissue (cardiac spheroids), ATP levels, read-out: Toxicity CC50 3D Culture
Procedure: (§5) Three-dimensional (3D) cardiac cells were obtained as previously described. Briefly, isolated cardiac muscle cells (2.5 × 10^4 cells/well) were seeded in 96-well U-bottom plates coated with agarose (1%) to form cell aggregates. Cardiac microtissue (7 days in culture) was employed to determine cardiotoxicity and drug efficacy in more complex systems. All animal-use procedures were approved by the Animal Care and Use Committee of Instituto Oswaldo Cruz (license L017/2022-A2).
as §4

[6] = tested on: T. cruzi (Dm28c-Luc) intracellular parasites in 3D cardiac spheroids; test: Antiparasitic activity in T. cruzi-infected 3D cardiac microtissues; type: cell-based, Trypanosoma cruzi; details: 72 h; for inhibition at 100 µM: Trypanosoma cruzi, read-out: Inhibition of parasite load in 3D cardiac microtissue
Procedure: as §5
Cardiac spheroids (2.5 × 10^4 cells/well), formed after 7 days of cultivation in a U-bottom plate, were infected for 24 h with trypomastigote forms of T. cruzi (Dm28c-Luc) at a ratio of 20:1 parasite-host cell. After washing, the drugs were added at concentrations of IC90, two times IC90, and 100 µM, respecting the CC20 value of cardiac spheroids as the maximum concentration. Bz was added at 100 µM. Luminescence measurements, which reveal the luciferase activity of the viable parasites, were performed after the addition of D-luciferin substrate (300 µg/mL). The luminescent signal was read in the Glomax reader and the results were represented in arbitrary luminescence units (ALU). The fluorescence microscopy images were also acquired from untreated and drug-treated infected 3D microtissues. Three-dimensional cultures were fixed with 4% paraformaldehyde in PBS and labeled with 4′,6-diamidino-2-phenylindole (DAPI). Images were acquired using a Zeiss Axio Imager M2 fluorescence microscope using Axio vision software (version 4.8).

[7] = tested on: T. cruzi (Dm28c-Luc) in Vero cell cultures; test: Washout (recovery) assay in T. cruzi-infected Vero cell cultures; type: cell-based, Trypanosoma cruzi; details: for ALUmean of parasite load in cell monolayer, washout assay: 10 days treatment + 10 days without drug
Procedure: The culture medium of the untreated and treated infected cultures was replaced every 3 or 4 days by a fresh medium with or without the pyrazole-thiadiazole derivatives. The presence of free viable parasites in the culture supernatant was monitored at each medium change by adding luciferin (300 µg/mL) followed by readout on a Glomax microplate reader. At the endpoint, culture supernatants and cell monolayers were evaluated for viable parasites. Positive and negative controls were performed using Bz (150 µM) and DMSO (≤1%), respectively. A minimum of 3 independent experimental runs were performed with 12 replicates.

[8] = tested on: T. cruzi in 3D cardiac spheroids; parameters: method as in PMID 33383023; details: 10 µM; cited from earlier work
[9] = tested on: T. cruzi infection of HeLa spheroids; parameters: method as in PMID 36099853; details: 40 µM pretreatment of HeLa spheroids; cited from earlier work
Vero cells = test: Toxicity in mammalian cells (CellTiter Glo, 72 h); type: cell-based
Procedure: as §2, §3

[10] = Vero, read-out: Intracellular Amastigotes pIC50 (converted)
[11] = Dm28c-Luc in Vero cells, 72 h treatment, mean ± SD, read-out: Anti-T. cruzi Activity Intracellular Amastigotes IC50
[12] = Dm28c-Luc in Vero cells, 72 h treatment, mean ± SD

SMILES	IC90 ([1]; Trypanosoma cruzi, Dm28c-Luc) [µM]	IC50 [2, 10] [µM]	IC50 [2, 11] [µM]	IC90 [2, 12] [µM]	CC50 at 72 h [3] [µM]	CC50 at 72 h [4] [µM]	CC50 at 72 h [5] [µM]	ALUmean (luminescence, parasite load) in 3D cardiac microtissue ([6]; 100 µM)	ALUmean of parasite load in cell monolayer, washout assay ([7]; 150 µM)	other results
O=C(Cn1ccnc1[N+](=O)[O-])NCc1ccccc1 [Bz, benznidazole, reference compound]	> 100	3.63	3.61 ± 1.25	11.5 ± 4.17	> 500	> 500	> 500	3520 ± 2198 ALU	3426 ± 1727 ALU	Trypomastigotes SI (CC50 of Vero cells/IC50 of trypomastigotes) [1]: >38.88; IC50 ([1]; Trypanosoma cruzi, Dm28c-Luc): 12.8 ± 2.66 µM; Intracellular Amastigotes SI (CC50 of Vero cells/IC50 of intracellular amastigotes) [2]: >158.23; inhibition at 100 µM [6]: 91%; inhibition at 150 µM ([7]; Trypanosoma cruzi, Vero, read-out: Inhibition in the release of trypomastigotes): 77%; inhibition at 150 µM ([7]; Trypanosoma cruzi, Vero, read-out: Inhibition of parasite release): 82%; Reduction of parasite load [8]: 92%
Oc1ccc(/C=C/c2cc(O)cc(O)c2)cc1 [resveratrol]										Reduction of T. cruzi infection level [9]: 50%
Nc1nnc(-c2cnn(-c3ccc(Cl)cc3Cl)c2)s1 [1c, 5-Amino-2-(1-(2,4-dichlorophenyl)-1H-pyrazol-4-yl)-1,3,4-thiadiazole]	> 100	13.5	13.5 ± 4.47	42.3 ± 3.47	> 500	> 500	> 500	17,078 ± 2407 ALU	57,103 ± 15,228 ALU	Trypomastigotes IC75 ([1]; Dm28c-Luc, 24 h): 54.6 µM and 54.66 µM; IC50 ([1]; Dm28c-Luc): 21.7 ± 2.94 µM; IC50 ([1]; Trypanosoma cruzi, 24 h, Dm28c-Luc): 21.7 µM; CC20 for Vero cell monolayers (Vero cells): > 500 µM; inhibition at 100 µM ([6]; 100 µM, vs infected untreated): 57%; ALUmean of parasite load in cell monolayer, washout assay ([7]; 300 µM): 66,378 ± 14,991 ALU; inhibition at 150 µM ([7]; Trypanosoma cruzi, Vero, 150 µM, 11 dpi, read-out: Inhibition in the release of trypomastigotes): 52%; inhibition at 300 µM ([7]; Trypanosoma cruzi, Vero, 300 µM, 11 dpi, read-out: Inhibition in the release of trypomastigotes): 66%; Prevention of reactivation of infection after drug withdrawal ([7]; washout assay): trypanostatic action; melting point: 284 to 285 °C
